Experimental findings from patent publication US20100210694A1 (NICOX S.A., priority 2007, published 2010) are described below.

Where two headings read alike, the source gives them in different places.

A word on the EC50: it is the concentration that produces a half-maximal response. In general, melting point refers to the temperature of the solid-liquid transition. The term IC50 denotes the concentration that inhibits the measured activity by half.

Series [1] can be described thus: Hydrolysis in human serum. Type of series: in vitro ADME. The following applies: male, 37 °C, compound 250 μM, read-out: Human serum stability t1/2. As for the experimental part: A solution of each compound of the invention (10 mM) in acetonitrile was added to human serum (from human male AB plasma, Sigma) preheated at 37° C., the final concentration of the compound was 250 μM. Resulting solution were incubated at 37±0.5° C. and at appropriate time intervals 500 μL of reaction mixture was withdrawn and added to 750 μL of acetonitrile containing 0.1% trifluoroacetic acid in order to deproteinize the serum. Sample was sonicated, vortexed and then centrifuged for 10′ at 2150 g. The clear supernatant was filtered by 0.45 μm PTFE filters (Alltech) and analysed by RP-HPLC.
(§1) Analyses were carried out with a HP 1100 chromatograph system (Agilent Technologies, Palo Alto, Calif., USA) equipped with a quaternary pump (model G1311A), a membrane degasser (G1379A), a diode-array detector (DAD) (model G1315B) integrated in the HP1100 system. Data analysis was done using a HP ChemStation system (Agilent Technologies). The analytical column was a Nucleosil 100-5018 Nautilus (250×4.6 mm, 5 μm particle size) (Macherey-Nagel). The mobile phase consisting of acetonitrile/water (55/45) with 0.1% trifluoroacetic acid and the flow-rate was 1.2 mL/min. The injection volume was 20 μL (Rheodyne, Cotati, Calif.). The column effluent was monitored at 240 nm (for salicylic acid) and at 226 nm (for all the other products) and referenced against a 360 nm wavelength. Quantitation was done by comparison of peak areas with standards chromatographed under the same conditions. The hydrolysis followed first-order kinetics. The observed pseudo-first-order rate constants (kobs) were calculated from the slopes of linear plots of the natural logarithms of percent remaining products against time and the corresponding half-lives (t1/2) were obtained from […]

Series [2] can be described thus: Hydrolysis in acidic medium (pH 1) and in phosphate buffer (pH 7.4). The conditions noted are these: for Stability in buffered solutions pH 1 % unchanged after 6 h: HCl 0.1M, pH 1, 37 °C; for Stability in buffered solutions pH 1 % unchanged after 6 h / Stability in buffered solutions pH 7.4 % unchanged after 6 h: 250 μM; for Stability in buffered solutions pH 7.4 % unchanged after 6 h: phosphate buffer 50 mM pH 7.4, 37 °C. Type of series: physicochemical. The protocol: A solution of each compound of the invention (10 mM) in acetonitrile was added to a HCl 0.1M or to a phosphate buffer 50 mM pH=7.4, containing, when necessary, 10-20% of acetonitrile as cosolvent. The final concentration of the compound was 250 μM. Resulting solution was kept at 37±0.5° C. and at appropriate time intervals a 20 μL aliquote of reaction solution was analysed by RP-HPLC.
as §1

The next series deals with rat aorta strips. Description: Vasodilating activity on precontracted rat aorta strips. Type of series: cell-based. The following applies: endothelium-denuded rat aortic strips contracted with 1 μM L-phenylephrine; for EC50: read-out: vasodilating activity EC50 ± SE. The protocol:
Thoracic aortas were isolated from male Wistar rats weighing 180-200 g. The endothelium was removed and the vessels were helically cut: three strips were obtained from each aorta. The tissues were mounted under 1.0 g tension in organ baths containing 30 ml of Krebs-bicarbonate buffer with the following composition (mM): NaCl 111.2, KCl 5.0, CaCl2 2.5, MgSO4 1.2, KH2PO4 1.0, NaHCO3 12.0, glucose 11.1, maintained at 37° C. and gassed with 95% O2-5% CO2 (pH=7.4). The aortic strips were allowed to equilibrate for 120 min and then contracted with 1 μM L-phenylephrine. When the response to the agonist reached a plateau, cumulative concentrations of the vasodilating agent were added.
All the compounds of the invention were capable to relax precontracted rat aorta strips in a concentration dependent manner.
When the vasodilator experiments were repeated in the presence of 1 μM ODQ (1H-[1,2,4]oxadiazolo[4,3-a]quinoxalin-1-one), a well known inhibitor of the soluble guanylate cyclase (sGC), a decrease in the vasodilator potencies was observed.

For another series, the system named is human platelets. The experiment in a line: Inhibition of platelet aggregation in vitro. The format is cell-based. The following applies: human PRP, collagen 1.0 μg/mL. As for the experimental part:
Platelet rich plasma (PRP) is prepared by centrifugation of citrated blood at 200 g for 20 minutes. […] Collagen (1.0 μg/mL) is used as platelet activator in PRP. The inhibitory activity of the compounds is tested by addition of drug to PRP 10 or 30 min before addition of the stimulus.
The antiaggregatory activity of the compounds of the invention is evaluated as % inhibition of platelet aggregation compared to control samples.

Setting [3] is: drug added 10 min before stimulus, read-out: Platelet Aggregation IC50 (collagen 95%) 10 min.
[4] abbreviates: drug added 30 min before stimulus, read-out: Platelet Aggregation IC50 (collagen 95%) 30 min.

Take `CC(=O)Oc1ccccc1C(=O)OCOC(=O)c1ccc(SCCCO[N+](=O)[O-])cc1` [(11), [(4-{[3-(Nitrooxy)propyl]thio}benzoyl)oxy]methyl 2-(acetyloxy)benzoate]: the half-life at 250 μM in series [1] was determined as 2 min. Also, in series [2], the “Stability in buffered solutions pH 1 % unchanged after 6 h” value was over 98% and the “Stability in buffered solutions pH 7.4 % unchanged after 6 h” value is listed as over 98%.

With `CC(=O)Oc1ccccc1C(=O)OCOC(=O)c1ccccc1OC(=O)CCC(CO[N+](=O)[O-])O[N+](=O)[O-]` (centres unmarked) [(13), [(2-{[4,5-Bis(nitrooxy)pentanoyl]oxy}benzoyl)oxy]methyl 2-(acetyloxy)benzoate], the EC50 with rat aorta strips amounted to 82 ± 14 nM.

In turn, `CC(=O)Oc1ccccc1C(=O)OCOC(=O)c1ccc(SCc2no[n+]([O-])c2C#N)cc1` [(22), [(4-{[(3-Cyano-furoxan-4-yl)methyl]thio}benzoyl)oxy]methyl 2-(acetyloxy)benzoate] had a melting point of 98.5 to 101.5 °C.

Turning to `CC(=O)Oc1ccccc1C(=O)OCOC(=O)c1ccc(OCC(CO[N+](=O)[O-])O[N+](=O)[O-])cc1` (centres unmarked) [(3), ({4-[2,3-Bis(nitrooxy)propoxy]benzoyl}oxy)methyl 2-(acetyloxy)benzoate], in series [1], the half-life at 250 μM was determined as 5.4 min. In addition, in series [2], the “Stability in buffered solutions pH 1 % unchanged after 6 h” value is on record as over 98% and the “Stability in buffered solutions pH 7.4 % unchanged after 6 h” value was over 98%. In the series on rat aorta strips, the EC50 is 41 ± 7 nM.

Regarding `CC(=O)Oc1ccccc1C(=O)OCOC(=O)c1ccc(OCCCO[N+](=O)[O-])cc1` [(2), ({4-[3-(Nitrooxy)propoxy]benzoyl}oxy)methyl 2-(acetyloxy)benzoate], in series [1], the half-life at 250 μM was determined as 3 min. Besides, in series [2], the “Stability in buffered solutions pH 1 % unchanged after 6 h” value is over 98% and the “Stability in buffered solutions pH 7.4 % unchanged after 6 h” value is given as over 98%. For the same compound, the EC50 in the series with rat aorta strips worked out at 17 ± 3 nM.

Take `CC(=O)Oc1ccccc1C(=O)OCOC(=O)c1ccc(SCc2no[n+]([O-])c2C)cc1` [(20), [(4-{[(3-Methyl-furoxan-4-yl)methyl]thio}benzoyl)oxy]methyl 2-(acetyloxy)benzoate]: the melting point was 96 to 97 °C.

As for `CC(=O)Oc1ccccc1C(=O)O` [Aspirin, reference compound], the half-life at 250 μM in series [1] stood at 63 min. Also, in the series on rat aorta strips, the “vasodilating activity EC50 ± SE” value is “no effect”.

Take `CC(=O)Oc1ccccc1C(=O)OCOC(=O)CCCCCCO[N+](=O)[O-]` [(7), {[7-(Nitrooxy)heptanoyl]oxy}methyl 2-(acetyloxy)benzoate]: the EC50 in the series with rat aorta strips was 1600 ± 200 nM.

For the compound `CC(=O)Oc1ccccc1C(=O)OCOC(=O)CCCC(CO[N+](=O)[O-])O[N+](=O)[O-]` (centres unmarked) [(6), {[5,6-Bis(nitrooxy)hexanoyl]oxy}methyl 2-(acetyloxy)benzoate], in series [1], the half-life at 250 μM was 2.7 min. In addition, in series [2], the “Stability in buffered solutions pH 1 % unchanged after 6 h” value was over 98% and the “Stability in buffered solutions pH 7.4 % unchanged after 6 h” value amounted to 100%. Moreover, the concentration giving a half-maximal response (EC50) with rat aorta strips came to 390 ± 60 nM.

As to `CC(=O)Oc1ccccc1C(=O)OCOC(=O)Cc1ccc(OCCCO[N+](=O)[O-])cc1` [(9)], the half-life at 250 μM in series [1] came to 1.5 min. Also, in series [2], the “Stability in buffered solutions pH 1 % unchanged after 6 h” value is over 98% and the “Stability in buffered solutions pH 7.4 % unchanged after 6 h” value is listed as over 98%. Also, the EC50 with rat aorta strips worked out at 300 ± 60 nM.

`CC(=O)Oc1ccccc1C(=O)OCOC(=O)CCCCCO[N+](=O)[O-]` [(5), {[6-(Nitrooxy)hexanoyl]oxy}methyl 2-(acetyloxy)benzoate]: the EC50 in the series on rat aorta strips is 1200 ± 200 nM.

Consider `CC(=O)Oc1ccccc1C(=O)OCOC(=O)c1ccc(CC(CO[N+](=O)[O-])O[N+](=O)[O-])cc1` (centres unmarked) [(1), ({4-[2,3-Bis(nitrooxy)propyl]benzoyl}oxy)methyl 2-(acetyloxy)benzoate], for which the half-life at 250 μM in series [1] was found to be 3.4 min. For the same compound, in series [2], the “Stability in buffered solutions pH 1 % unchanged after 6 h” value is over 98% and the “Stability in buffered solutions pH 7.4 % unchanged after 6 h” value is 100%. Moreover, the half-maximal effective concentration (EC50) in the series with rat aorta strips was found to be 52 ± 7 nM.

For `CC(=O)Oc1ccccc1C(=O)OCOC(=O)c1ccc(SCC(CO[N+](=O)[O-])O[N+](=O)[O-])cc1` (centres unmarked) [(16), [(4-{[2,3-Bis(nitrooxy)propyl]thio}benzoyl)oxy]methyl 2-(acetyloxy)benzoate], the half-life at 250 μM in series [1] is 4.8 min. In series [2], the “Stability in buffered solutions pH 1 % unchanged after 6 h” value is listed as over 98% and the “Stability in buffered solutions pH 7.4 % unchanged after 6 h” value is given as over 98%.

Regarding `CC(=O)Oc1ccccc1C(=O)OCOC(=O)c1ccc(CCCO[N+](=O)[O-])cc1` [(12), ({4-[3-(Nitrooxy)propyl]benzoyl}oxy)methyl 2-(acetyloxy)benzoate], in the series on rat aorta strips, the concentration giving a half-maximal response (EC50) was determined as 75 ± 14 nM. Also, the IC50 was determined as 41000 nM in the series with human platelets (setting [3]) and 14000 nM in the series on human platelets (setting [4]).

Consider `CC(=O)Oc1ccccc1C(=O)OCOC(=O)Cc1ccc(OCC(CO[N+](=O)[O-])O[N+](=O)[O-])cc1` (centres unmarked) [(10), [(2-{4-[2,3-Bis(nitrooxy)propoxy]phenyl}acetyl)oxy]methyl 2-(acetyloxy)benzoate], for which, in the series on rat aorta strips, the EC50 came to 270 ± 50 nM.

As for `CC(=O)Oc1ccccc1C(=O)OCOC(=O)CCCCO[N+](=O)[O-]` [(4)], the EC50 in the series on rat aorta strips stood at 1900 ± 500 nM.

Regarding `CC(=O)Oc1ccccc1C(=O)OCOC(=O)c1ccc(OCCCO[N+](=O)[O-])cc1O` [(14), {[2-(Acetyloxy)benzoyl]oxy}methyl 2-hydroxy-4-[3-(nitrooxy)propoxy]benzoate], the EC50 in the series with rat aorta strips is 8 ± 1.1 nM.

As to `CC(=O)Oc1ccccc1C(=O)OCOC(=O)c1ccc(SCc2no[n+]([O-])c2C(N)=O)cc1` [(21), [(4-{[(3-Aminocarbonyl-furoxan-4-yl)methyl]thio}benzoyl)oxy]methyl 2-(acetyloxy)benzoate], the melting point fell in the range of 149 to 151 °C.

`CC(=O)Oc1ccccc1C(=O)OCOC(=O)c1ccc(S(=O)(=O)CCCO[N+](=O)[O-])cc1` [(15), [(4-{[3-(Nitrooxy)propyl]sulfonyl}benzoyl)oxy]methyl 2-(acetyloxy)benzoate]: the half-life at 250 μM in series [1] is 1 min; in series [2] (phosphate buffer 50 mM pH 7.4, phosphate buffer pH 7.4, 37 °C, read-out: t1/2 in buffered solution pH 7.4), about 720 min. Besides, in series [2], the “Stability in buffered solutions pH 1 % unchanged after 6 h” value was over 98%. Besides, in series [2], the “Stability in buffered solutions pH 7.4 % unchanged after 6 h” value is on record as 70%. Further, the IC50 worked out at 34000 nM in the series with human platelets (setting [3]) and 17000 nM in the series on human platelets (setting [4]).

In the case of `CC(=O)Oc1ccccc1C(=O)OC(C)OC(=O)c1ccc(SCCCO[N+](=O)[O-])cc1` (centres unmarked) [(24), 1-{[4-([3-(nitrooxy)propyl]thio}benzoyl)oxy]ethyl 2-(acetyloxy)Benzoate], the half-life at 250 μM in series [1] stood at 4.2 min. For the same compound, in series [2], the “Stability in buffered solutions pH 1 % unchanged after 6 h” value was over 98% and the “Stability in buffered solutions pH 7.4 % unchanged after 6 h” value is over 98%.

With `CC(=O)Oc1ccccc1C(=O)OCOC(=O)CCCCC(CO[N+](=O)[O-])O[N+](=O)[O-]` (centres unmarked) [(8), {[6,7-Bis(nitrooxy)heptanoyl]oxy}methyl 2-(acetyloxy)benzoate], in series [1], the half-life at 250 μM is 2.5 min. Besides, in series [2], the “Stability in buffered solutions pH 1 % unchanged after 6 h” value is recorded as over 98% and the “Stability in buffered solutions pH 7.4 % unchanged after 6 h” value was 100%. Besides, the concentration for a half-maximal effect (EC50) in the series with rat aorta strips turned out to be 520 ± 90 nM.
